Data published in publication PMC5519634, “Effects of 4(1H)-quinolinone derivative, a novel non-nucleotide allosteric purinergic P2Y2 agonist, on cardiomyocytes in neonatal rats” (Scientific Reports, 2017).

Key:
[1] = test system: empty vector-transfected parental 1321N1 cells; experiment: Ca2+ mobilization in empty vector-transfected parental 1321N1 cells; format: cell-based, human; details: 10 μM; data not shown
[2] = test system: Nr4a1, Nr4a2, Nr4a3, c-fos mRNA in NRCMs; experiment: mRNA expression analysis of Nr4a1, Nr4a2, Nr4a3 and c-fos in NRCMs; format: cell-based, rat; details: for induction of Nr4a1 mRNA at 2 h versus isoproterenol alone: 30 μM Compound 89 or 100 μM ATP in the presence of 10 μM isoproterenol
Experimental: Neonatal rat cardiomyocytes were seeded in a collagen I-coated 96-well plate, then cultured and maintained for a week before the ligand stimulation assay. […] After stimulation, cDNA samples were synthesized from lysates using TaqMan Gene Expression Cells-to-Ct kits (Thermo Fisher Scientific) according to the manufacturer’s instructions, followed by quantitative real-time polymerase chain reaction analysis using a Prism 7900HT sequence detector (Thermo Fisher Scientific). Thermal cycling parameters were 2 min at 50 °C and 10 min at 95 °C, followed by 40 cycles at 95 °C for 15 sec and 60 °C for 1 min. The mRNA levels were analysed with the comparative Ct method (2^−ΔΔCt) using Rplp0 as the housekeeping gene. The TaqMan Gene Expression assays (Thermo Fisher Scientific) used herein were as follows: Rn01533237_m1 (Nr4a1), Rn00570936_m1 (Nr4a2), Rn01354012_m1 (Nr4a3), Rn02396759_m1 (c-fos), and Rn03302271_gH (Rplp0).

[3] = test system: neonatal rat cardiomyocytes (NRCMs); experiment: Isoproterenol-induced cardiac hypertrophy in NRCMs; format: cell-based; details: 10 μM isoproterenol
Experimental: Neonatal rat cardiomyocytes were seeded in a 96-well collagen I plate at a density of 5000 cells/well. They were incubated overnight and then transferred to a serum-free medium for one day. Next, the cells were treated with the indicated concentrations of compounds and 10 μM isoproterenol, and then incubated for 2 days. To quantify cardiomyocyte hypertrophy via filamentous actin staining, NRCMs were fixed with 4% paraformaldehyde (Wako) and permeabilized with 0.1% Triton X-100 (MP Biomedicals, France), followed by blocking with 1% bovine serum albumin (Wako) and staining with 2 μM phalloidin–fluorescein isothiocyanate (phalloidin-FITC; Sigma-Aldrich, Japan) and 10 μM Hoechst 33258 (Dojindo). Quantification of FITC-fluorescence intensity and cell number was performed using an IN Cell Analyzer 6000 (GE Healthcare Japan). The signals from obtained images were quantitated by means of a customized image analysis algorithm using the IN Cell Developer Toolbox (GE Healthcare Japan). Hypertrophic scores were calculated as the product of FITC-fluorescence intensity and cell area per cell as programmed by GE Healthcare technical support experts.

[4] = biological target: T1, P2Y2 in neonatal rat cardiomyocytes (NRCMs) (Rattus norvegicus, UniProt P41232); experiment: cell-based
T1 sequence (P41232 whole entry): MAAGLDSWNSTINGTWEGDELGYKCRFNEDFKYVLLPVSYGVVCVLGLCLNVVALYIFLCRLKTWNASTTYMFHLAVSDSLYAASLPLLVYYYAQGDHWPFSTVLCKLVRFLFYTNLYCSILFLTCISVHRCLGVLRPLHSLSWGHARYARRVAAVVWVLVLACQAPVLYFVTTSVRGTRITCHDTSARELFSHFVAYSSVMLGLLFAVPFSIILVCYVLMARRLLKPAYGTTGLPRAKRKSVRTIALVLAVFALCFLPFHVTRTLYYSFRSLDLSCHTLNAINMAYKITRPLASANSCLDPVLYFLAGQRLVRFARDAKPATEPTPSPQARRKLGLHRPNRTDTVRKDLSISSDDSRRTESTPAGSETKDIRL

mouse P2Y2 receptors = biological target: T2, mouse P2Y2 receptors (Mus musculus, UniProt P35383); experiment: FLIPR Ca2+ mobilization assay in mP2Y2-1321N1 cells; format: cell-based
T2 construct: expressed in transfected cells
T2 sequence (P35383 whole entry): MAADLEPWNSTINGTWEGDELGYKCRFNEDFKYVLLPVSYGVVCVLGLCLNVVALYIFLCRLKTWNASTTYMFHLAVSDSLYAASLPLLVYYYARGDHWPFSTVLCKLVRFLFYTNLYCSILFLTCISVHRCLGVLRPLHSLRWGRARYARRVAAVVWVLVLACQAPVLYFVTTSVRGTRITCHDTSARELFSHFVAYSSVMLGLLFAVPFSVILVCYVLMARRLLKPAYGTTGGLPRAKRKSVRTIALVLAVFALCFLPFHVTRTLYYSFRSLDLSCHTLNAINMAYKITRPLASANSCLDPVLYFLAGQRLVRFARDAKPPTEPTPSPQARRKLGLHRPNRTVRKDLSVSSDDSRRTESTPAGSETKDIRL

human P2Y1 receptor = biological target: T3, human P2Y1 receptor (Homo sapiens, UniProt P47900); experiment: FLIPR Ca2+ mobilization assay in transiently hP2Y1-expressing 1321N1 cells; format: cell-based; details: at up to 30 µM
T3 construct: expressed in transfected cells; host or cells: 1321N1 human astrocytoma cells, pcDNA3.1(+) plasmid, transient
T3 sequence (P47900 whole entry): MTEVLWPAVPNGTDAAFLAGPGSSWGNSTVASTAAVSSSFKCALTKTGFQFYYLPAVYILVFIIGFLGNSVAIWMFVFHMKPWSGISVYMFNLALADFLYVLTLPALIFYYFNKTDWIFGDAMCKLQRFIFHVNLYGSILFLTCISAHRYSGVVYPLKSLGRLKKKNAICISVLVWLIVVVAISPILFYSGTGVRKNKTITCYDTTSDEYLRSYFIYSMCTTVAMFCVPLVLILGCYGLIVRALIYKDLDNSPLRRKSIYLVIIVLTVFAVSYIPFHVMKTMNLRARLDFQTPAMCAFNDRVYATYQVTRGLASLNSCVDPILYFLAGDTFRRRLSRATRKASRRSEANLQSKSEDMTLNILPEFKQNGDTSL

human P2Y4 receptor = biological target: T4, human P2Y4 receptor (Homo sapiens, UniProt P51582); experiment: FLIPR Ca2+ mobilization assay in transiently hP2Y4-expressing 1321N1 cells; format: cell-based; details: at up to 30 µM
T4 construct: expressed in transfected cells; host or cells: 1321N1 human astrocytoma cells, pcDNA3.1(+) plasmid, transient
T4 sequence (P51582 whole entry): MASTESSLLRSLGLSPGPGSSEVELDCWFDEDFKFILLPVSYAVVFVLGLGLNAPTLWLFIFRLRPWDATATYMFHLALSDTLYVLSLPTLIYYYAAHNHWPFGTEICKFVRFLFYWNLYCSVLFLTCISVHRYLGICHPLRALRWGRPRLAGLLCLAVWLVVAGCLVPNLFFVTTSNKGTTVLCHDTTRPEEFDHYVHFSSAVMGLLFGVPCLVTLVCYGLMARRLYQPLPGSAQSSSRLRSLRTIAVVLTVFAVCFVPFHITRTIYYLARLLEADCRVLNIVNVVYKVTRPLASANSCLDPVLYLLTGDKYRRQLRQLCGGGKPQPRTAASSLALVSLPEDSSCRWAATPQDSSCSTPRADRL

human P2Y6 receptor = biological target: T5, human P2Y6 receptor (Homo sapiens, UniProt Q15077); experiment: FLIPR Ca2+ mobilization assay in transiently hP2Y6-expressing 1321N1 cells; format: cell-based; details: at up to 30 µM
T5 construct: expressed in transfected cells; host or cells: 1321N1 human astrocytoma cells, pcDNA3.1(+) plasmid, transient
T5 sequence (Q15077 whole entry): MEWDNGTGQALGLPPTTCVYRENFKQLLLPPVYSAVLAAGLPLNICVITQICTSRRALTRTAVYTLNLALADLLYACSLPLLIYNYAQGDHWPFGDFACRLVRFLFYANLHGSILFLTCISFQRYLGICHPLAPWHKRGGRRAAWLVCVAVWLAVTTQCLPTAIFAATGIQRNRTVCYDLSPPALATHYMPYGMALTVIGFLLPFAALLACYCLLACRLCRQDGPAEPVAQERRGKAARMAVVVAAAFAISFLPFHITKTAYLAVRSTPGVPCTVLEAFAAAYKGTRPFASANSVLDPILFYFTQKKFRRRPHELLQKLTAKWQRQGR

human P2Y11 receptor = biological target: T6, human P2Y11 receptor (Homo sapiens, UniProt Q96G91); experiment: FLIPR Ca2+ mobilization assay in transiently hP2Y11-expressing 1321N1 cells; format: cell-based; details: at up to 30 µM
T6 construct: expressed in transfected cells; host or cells: 1321N1 human astrocytoma cells, pcDNA3.1(+) plasmid, transient
T6 sequence (Q96G91 1-374): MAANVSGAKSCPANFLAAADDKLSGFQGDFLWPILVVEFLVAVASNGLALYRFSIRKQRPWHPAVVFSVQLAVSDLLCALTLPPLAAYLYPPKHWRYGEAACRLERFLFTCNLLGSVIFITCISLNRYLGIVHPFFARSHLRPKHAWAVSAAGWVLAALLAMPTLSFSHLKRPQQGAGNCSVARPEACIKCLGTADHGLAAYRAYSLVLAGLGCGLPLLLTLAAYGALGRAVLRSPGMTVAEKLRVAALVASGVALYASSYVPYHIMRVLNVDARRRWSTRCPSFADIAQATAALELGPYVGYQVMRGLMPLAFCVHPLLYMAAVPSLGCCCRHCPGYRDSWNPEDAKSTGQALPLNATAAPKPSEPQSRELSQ

human P2Y12 receptor = biological target: T7, human P2Y12 receptor (Homo sapiens, UniProt Q9H244); experiment: cAMP accumulation assay in hP2Y12-1321N1 cells; format: cell-based; details: at up to 30 µM
T7 construct: expressed in transfected cells
T7 sequence (Q9H244 whole entry): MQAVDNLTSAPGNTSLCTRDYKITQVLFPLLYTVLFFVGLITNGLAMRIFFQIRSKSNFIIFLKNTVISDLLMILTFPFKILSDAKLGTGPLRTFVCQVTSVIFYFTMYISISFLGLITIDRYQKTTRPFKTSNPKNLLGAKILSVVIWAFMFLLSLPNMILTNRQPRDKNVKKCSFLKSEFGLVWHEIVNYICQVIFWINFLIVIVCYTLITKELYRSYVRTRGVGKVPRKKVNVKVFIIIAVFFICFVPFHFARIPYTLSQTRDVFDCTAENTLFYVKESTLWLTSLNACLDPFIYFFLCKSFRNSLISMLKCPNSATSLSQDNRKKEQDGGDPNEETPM

β-adrenergic receptor = experiment: cAMP signalling in parental 1321N1 cells; format: cell-based, human
[5] = biological target: T1, P2Y2 in neonatal rat cardiomyocytes (NRCMs); details: without ATP
human P2Y2 receptors = human P2Y2 receptors (Homo sapiens, UniProt P41231); experiment: cell-based
human P2Y2 receptors, sequence (P41231 whole entry): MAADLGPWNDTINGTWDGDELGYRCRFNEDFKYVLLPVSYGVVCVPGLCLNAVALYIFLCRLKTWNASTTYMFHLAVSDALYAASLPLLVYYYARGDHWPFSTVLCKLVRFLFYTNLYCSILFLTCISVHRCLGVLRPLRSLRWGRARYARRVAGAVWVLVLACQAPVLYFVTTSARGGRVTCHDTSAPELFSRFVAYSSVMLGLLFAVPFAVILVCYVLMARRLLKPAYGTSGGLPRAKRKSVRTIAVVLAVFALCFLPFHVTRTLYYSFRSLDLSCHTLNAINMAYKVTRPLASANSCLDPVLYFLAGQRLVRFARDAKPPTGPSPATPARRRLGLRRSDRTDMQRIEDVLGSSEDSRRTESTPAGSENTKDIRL

[6] = read-out: extrapolated maximum efficacy with respect to 10 μM ATP

`Nc1ncnc2c1ncn2[C@@H]1O[C@H](COP(=O)(O)OP(=O)(O)O)[C@@H](O)[C@H]1O` [ADP, adenosine-5′-diphosphate] was tested, and the “activity in empty vector-transfected parental 1321N1 cells” value [1] was “lacked activity”.
`Nc1ncnc2c1ncn2[C@@H]1O[C@H](COP(=O)(O)OP(=O)(O)OP(=O)(O)O)[C@@H](O)[C@H]1O` [ATP, adenosine-5′-triphosphate, reference compound] was tested, and the “expression of all Nr4a genes” value ([2]; 10 μM, steadily after 30 min) was “increased”, the “induction of Nr4a1 mRNA at 2 h versus isoproterenol alone” value [2] was “did not affect induction” and the “effect on isoproterenol-induced cardiac hypertrophy (hypertrophic score)” value ([3]; 10 and 100 μM, P = 0.568) was “no significant effects”. The “activity in empty vector-transfected parental 1321N1 cells” value [1] was “lacked activity” and the EC50 ([4]; EC50 for ATP, NRCMs, in the absence of Compound 89) was 2600 nM.
`CCN(Cc1ccc(F)cc1)Cc1cc(=O)c2ccc(C)c(C)c2[nH]1` [Compound 89, 2-((ethyl(4-fluorobenzyl)amino)methyl)-7,8-dimethylquinolin-4(1H)-one] was tested, and the Emax (mouse P2Y2 receptors; [6]) was 50.9%, the EC50 (mouse P2Y2 receptors; stably-expressing mP2Y2-1321N1 cells (Fig. 1b), read-out: EC50 (potency), agonistic activity) was 2700 nM and the “agonistic activity against hP2Y1” value (human P2Y1 receptor) was “lacked agonistic activity”. The “agonistic activity against hP2Y4” value (human P2Y4 receptor) was “lacked agonistic activity”, the “agonistic activity against hP2Y6” value (human P2Y6 receptor) was “lacked agonistic activity” and the “agonistic activity against hP2Y11” value (human P2Y11 receptor) was “lacked agonistic activity”. The “agonistic activity against hP2Y12” value (human P2Y12 receptor) was “lacked agonistic activity”, the “induction of Nr4a1 mRNA at 2 h versus isoproterenol alone” value [2] was “greater” and the “effect on ATP-induced gene expression changes” value ([2]; co-administration at 10 and 30 μM with ATP, concentration-dependent) was “enhanced”. For the same compound, the “changes in gene expression (Nr4a1, Nr4a2, Nr4a3, c-fos) by compound alone” value ([2]; without ATP, up to 90 min) was “did not induce any changes in gene expression”, the “attenuation of hypertrophy after 48 h of treatment” value ([3]; 30 μM) was “Complete attenuation” and the “effect on isoproterenol-induced cardiac hypertrophy (hypertrophic score)” value ([3]; 1 to 30 μM, concentration-dependent) was “attenuated”. The “effect on β-adrenergic receptor-mediated cAMP signalling” value (β-adrenergic receptor) was “does not affect”, the intrinsic agonistic activity [5] was “no intrinsic agonistic activity” and the EC50 (human P2Y2 receptors; EC50 (potency), agonistic activity, transiently-expressing hP2Y2-1321N1 cells (Fig. 1b)) was 10500 nM. The EC50 (human P2Y2 receptors; EC50 for Compound 89, hP2Y2 stably-expressing 1321N1 cells, in the absence of ATP) was 53900 nM, the EC50 (human P2Y2 receptors; EC50 for Compound 89, hP2Y2 stably-expressing 1321N1 cells, in the presence of 10 nM ATP) was 2500 nM and the Emax (human P2Y2 receptors; [6]) was 65.8%. For the same compound, the EC50 ([4]; EC50 for Compound 89, NRCMs, in the presence of 1 μM ATP) was 1300 nM and the EC50 ([4]; EC50 for Compound 89, NRCMs, in the presence of 30 μM ATP) was 110 nM.
`O=c1ccn([C@@H]2O[C@H](COP(=O)(O)OP(=O)(O)O)[C@@H](O)[C@H]2O)c(=O)[nH]1` [UDP, uridine-5′-diphosphate] was tested, and the “activity in empty vector-transfected parental 1321N1 cells” value [1] was “lacked activity”.
For `O=c1ccn([C@@H]2O[C@H](COP(=O)(O)OP(=O)(O)OP(=O)(O)O)[C@@H](O)[C@H]2O)c(=O)[nH]1` [UTP, uridine-5′-triphosphate], the “activity in empty vector-transfected parental 1321N1 cells” value [1] was “lacked activity”.
In the case of `CC(C)NCC(O)c1ccc(O)c(O)c1` (centres unmarked) [isoproterenol, reference compound], the “induction of Nr4a1 mRNA at 2 h versus vehicle” value ([2]; 10 μM isoproterenol, P = 5 × 10^−4) is reported as “significantly induced”.
